From patent publication US9504747B2, “Lipids and lipid compositions for the delivery of active agents” (Novartis AG, priority 2013, dated 2016)
Several values for one entry are separate records, joined by “and”; a condition that tells them apart may be missing. Identical values can stand only once.

Columns and labels:
[1] = pKa measurement of the cationic lipid (TNS fluorescence vs pH); type: physicochemical; settings: probe TNS (fluorescent probe), pKa of the cationic lipid of formula (I)
Method: Unless indicated otherwise, all pKa's referred to herein were measured at standard temperature and pressure. Also, unless otherwise indicated, all references to pKa are references to pKa measured using the following technique. 2 mM solution of lipid in ethanol was prepared by weighing the lipid and then dissolving it in ethanol. 0.3 mM solution of fluorescent probe TNS in ethanol:methanol 9:1 was prepared by first making 3 mM solution of TNS in methanol and then diluting to 0.3 mM with ethanol. An aqueous buffer containing 200 mM sodium phosphate dibasic and 100 mM citric acid was prepared. […] Using the Hamilton Microlab Star high throughput liquid handler and Hamilton run control software Software, 7.5 uL of probe/lipid mix were added to 242.5 uL of buffer in a 1 mL 96 well plate (model NUNC 260252, […] Nunc International). This was done with all twelve buffers. After mixing in 1 mL 96 well plate, 100 uL of each probe/lipid/buffer mixture was transferred to a 250 uL black with clear bottom 96 well plate (model COSTAR 3904, Corning). The fluorescence measurements are carried out on the SpectraMax M5 spectrophotometer using software SoftMax pro 5.2 and following parameters: After the measurement, the background fluorescence value of an empty well on the 96 well plate was subtracted from each probe/lipid/buffer mixture. The fluorescence intensity values were then normalized to the value at lowest pH. The normalized fluorescence intensity vs. pH chart was then plotted in the Microsoft Excel software. The twelve points were connected with a smooth line. The point on the line at which the normalized fluorescence intensity was equal to 0.5 was found. […] The pKa determined using this method is precise to about 0.1 pKa units.

[2] = tested on: respiratory syncytial virus F protein; test: Immunization studies: anti-RSV-F titers after liposome-delivered vA317 self-replicating RNA; type: in vivo; settings: BALB/c mice, Course A = days 0 & 21, liposomes with 0.1 μg vA317 replicon (naked control 1 μg)
Method: BALB/c were immunized with liposomes comprising DSPC, cholesterol, and various lipids of the invention (or, for comparison, the cationic lipid 1,2-dilinoleyloxy-N,N-dimethyl-3-aminopropane or ‘DLinDMA’). The liposomes encapsulated 0.1 μg of “vA317” self-replicating RNA replicon which encodes respiratory syncytial virus F protein (see WO2012/031043). […] Doses were given either on days 0 & 21 or days 0 & 42. Immune responses were assessed 2 weeks after each dose (2wp1, 2wp2), and in some cases also at 4 weeks after the second dose (4wp2). Four series of experiments were performed, each with its own naked control.

[3] = Polydispersity index (PDI) of the lipid nanoparticle (dynamic light scattering); type: physicochemical
Source text: The lipid nanoparticles (LNPs) were formed by mixing equal volumes of lipids dissolved in alcohol with siRNA dissolved in a citrate buffer by an impinging jet process. […] The siRNA to total lipid ratio is approximately 0.05 (wt/wt). Where a LNP formulation contains four lipid components, the molar ratios correspond to the type of lipid as it appears in the first four columns of the table, in the order that they appear. The ratio of the lipids ranges from 20 to 70 mole percent for the cationic lipid with a target of 40-60, the mole percent of helper lipid ranges from 20 to 70 with a target of 30 to 50, the mole percent of neutral lipid ranges from 0-30, the mole percent of PEG lipid has a range from 1 to 6 with a target of 2 to 5. The concentration of siRNA solution ranges from 0.7 to 1.0 mg/mL with a target of 0.8 to 0.9 mg/mL in a sodium citrate: sodium chloride buffer pH 4-6, with a target of 4.5-5.5. The LNPs are formed by mixing equal volumes of lipid solution in ethanol with siRNA dissolved in a citrate buffer by an impinging jet process through a mixing device with ID ranging from 0.25 to 2.0 mm at a flow rate from 10 to 640 mL/min. The mixed LNP solution is held at room temperature for 0-24 hrs prior to a dilution step. […] The final product is sterile filtered and stored at 4° C. Unless indicated otherwise, all PDIs referred to herein are the PDI of the fully formed nanoparticle, as measured by dynamic light scattering on a Malvern Zetasizer. The nanoparticle sample was diluted in phosphate buffered saline (PBS) so that the count rate was approximately 200-400 kcts. The data is presented in Tables 4 and 5 as a weighted average of the intensity measure.

[4] = Particle size of the lipid nanoparticle (dynamic light scattering, Malvern Zetasizer); type: physicochemical; settings: Table 4, FVII siRNA LNP, Z-average
Source text: The lipid nanoparticles have a size of about 1 to about 2,500 nm, about 1 to about 1,500 nm, about 1 to about 1,000 nm, in a sub-embodiment about 50 to about 600 nm, in a sub-embodiment about 50 to about 400 nm, in a sub-embodiment about 50 to about 250 nm, and in a sub-embodiment about 50 to about 150 nm. Unless indicated otherwise, all sizes referred to herein are the average sizes (diameters) of the fully formed nanoparticle, as measured by dynamic light scattering on a Malvern Zetasizer. The nanoparticle sample is diluted in phosphate buffered saline (PBS) so that the count rate is approximately 200-400 kcts. The data is presented as a weighted average of the intensity measure. The lipid nanoparticles (LNPs) were formed by mixing equal volumes of lipids dissolved in alcohol with siRNA dissolved in a citrate buffer by an impinging jet process. […] The siRNA to total lipid ratio is approximately 0.05 (wt/wt). Where a LNP formulation contains four lipid components, the molar ratios correspond to the type of lipid as it appears in the first four columns of the table, in the order that they appear. The ratio of the lipids ranges from 20 to 70 mole percent for the cationic lipid with a target of 40-60, the mole percent of helper lipid ranges from 20 to 70 with a target of 30 to 50, the mole percent of neutral lipid ranges from 0-30, the mole percent of PEG lipid has a range from 1 to 6 with a target of 2 to 5. The concentration of siRNA solution ranges from 0.7 to 1.0 mg/mL with a target of 0.8 to 0.9 mg/mL in a sodium citrate: sodium chloride buffer pH 4-6, with a target of 4.5-5.5. The LNPs are formed by mixing equal volumes of lipid solution in ethanol with siRNA dissolved in a citrate buffer by an impinging jet process through a mixing device with ID ranging from 0.25 to 2.0 mm at a flow rate from 10 to 640 mL/min. The mixed LNP solution is held at room temperature for 0-24 hrs prior to a dilution step. […] The final product is sterile filtered and stored at 4° C. Unless indicated otherwise, all particle size measurements referred to in Tables 4 and 5 are the Z-average particle size of the fully formed nanoparticle, as measured by dynamic light scattering on a Malvern Zetasizer. The nanoparticle sample was diluted in phosphate buffered saline (PBS) so that the count rate is approximately 200-400 kcts.

[5] = Table 4, FVII siRNA LNP, Chol/DSPC/stealth lipid PEG-DMG, 45/44/9/2
[6] = Table 4, FVII siRNA LNP, Chol/DSPC/stealth lipid S010, 45/44/9/2
[7] = Chol/DSPC/stealth lipid PEG-DMG, molar ratio 45/44/9/2
[8] = Chol/DSPC/stealth lipid S010, molar ratio 45/44/9/2

Structure (SMILES) | pKa ([1]; Table 4) | PDI [3, 5] | PDI [3, 6] | Size (nm) [4, 7] [nm] | Size (nm) [4, 8] [nm] | further results
CCCCC/C=C\C/C=C\CCCCCCCCOc1cc(CN(C)C)cc(OCCCCCCCC/C=C\C/C=C\CCCCC)c1 [Example 2] | 5.57 | 0.04 | 0.067 |  |  | pKa ([1]; Table 5): 5.57; anti-RSV-F titer 2wp1 pool 1 ([2]; 2 weeks after first dose): 217; anti-RSV-F titer 2wp1 pool 2 ([2]; 2 weeks after first dose): 259; anti-RSV-F titer 2wp2 pool 1 ([2]; 2 weeks after second dose): 12785; anti-RSV-F titer 2wp2 pool 2 ([2]; 2 weeks after second dose): 8232; PDI ([3]; Table 5, PLK1-424 siRNA LNP, stealth lipid S011, 45/44/9/2): 0.1
CCCCC/C=C\C/C=C\CCCCCCCCOc1cc(COC(=O)CCN(C)C)cc(OCCCCCCCC/C=C\C/C=C\CCCCC)c1 [Example 14] | 6.11 |  | 0.059 |  |  | anti-RSV-F titer 4wp2 pool 1 ([2]; 4 weeks after second dose): 13687 and 21375; anti-RSV-F titer 4wp2 pool 2 ([2]; 4 weeks after second dose): 18851 and 21347
CCCCC/C=C\C/C=C\CCCCCCCC(=O)OCc1cc(COC(=O)CCCCCCC/C=C\C/C=C\CCCCC)cc(CN(C)C)c1 [Example 33] | 5.85 | 0.06 | 0.042 | 107.8 | 79.15 | 
CCCCCCCCCCCCC(=O)OCc1cc(COC(=O)CCCCCCCCCCCC)cc(CN(C)C)c1 [Example 34] | 5.95 | 0.06 | 0.036 | 126.0 | 113.8 | 
CCCCC/C=C\C/C=C\CCCCCCCC(=O)OCCOc1cc(CN(C)C)cc(OCCOC(=O)CCCCCCC/C=C\C/C=C\CCCCC)c1 [Example 40] | 6.17 | 0.02 | 0.062 | 110.9 | 94.28 | 
CCCCCC(=O)OCCCCCCCCOc1cc(CN(C)C)cc(OCCCCCCCCOC(=O)CCCCC)c1 [Example 41] | 5.83 |  | 0.119 |  | 170.7 | 
CCCCCC(=O)OCCCCCCCCCCOc1cc(CN(C)C)cc(OCCCCCCCCCCOC(=O)CCCCC)c1 [Example 44] | 5.66 |  | 0.077 |  | 172.9 | 
CCCCC/C=C\C/C=C\CCCCCCCC(=O)OCCCCCCCCOc1cc(CN(C)C)cc(OCCCCCCCCOC(=O)CCCCCCC/C=C\C/C=C\CCCCC)c1 [Example 46] | 6.18 |  | 0.135 |  | 102.4 | 
CCCCCCCCCC(=O)OCCCCCCOc1cc(CN(C)C)cc(OCCCCCCOC(=O)CCCCCCCCC)c1 [Example 47] | 6.07 | 0.06 | 0.035 | 109.3 | 125.9 | 
CCCCCCCC(=O)OCCCCCCOc1cc(CN(C)C)cc(OCCCCCCOC(=O)CCCCCCC)c1 [Example 48] | 5.93 |  | 0.105 |  | 152.3 | 
CCCCC/C=C\C/C=C\CCCCCCCC(=O)OCCCCOc1cc(CN2CC(O)C2)cc(OCCCCOC(=O)CCCCCCC/C=C\C/C=C\CCCCC)c1 [Example 49] | 5.99 |  | 0.046 |  | 111.1 | 
CCC/C=C\CCCCCCC(=O)OCCCCCCOc1cc(CN(C)C)cc(OCCCCCCOC(=O)CCCCCC/C=C\CCC)c1 [Example 50] | 5.92 |  | 0.056 |  | 126 | 
CCCCC/C=C\CC=CCCCCCCCC(=O)OCCCCOc1cc(CN(C)C)cc(OCCCCOC(=O)CCCCCCCC=CC/C=C\CCCCC)c1C [Example 51] |  |  | 0.052 |  | 103.2 | 

Now from value to molecule, other results behind:

pKa ([1]; Table 4) | PDI [3, 5] | PDI [3, 6] | Size (nm) [4, 7] [nm] | Size (nm) [4, 8] [nm] | Structure (SMILES) | further results
6.03 | 0.1 | 0.079 | 129.1 | 113.3 | CCCCCCCCCCCC(=O)OCCCCCCCCOc1cc(CN(C)C)cc(OCCCCCCCCOC(=O)CCCCCCCCCCC)c1 [Example 53] | 
6.37 | 0.10 | 0.043 | 101.9 | 106.9 | CCCCC/C=C\C/C=C\CCCCCCCC(=O)OCCCCOc1cc(CN(CC)CC)cc(OCCCCOC(=O)CCCCCCC/C=C\C/C=C\CCCCC)c1C [Example 55] | 
6.21 |  | 0.098 |  | 95.55 | CCCCCCCC/C=C\CCCCCCCC(=O)OCCCCOc1cc(CN(C)C)cc(OCCCCOC(=O)CCCCCCC/C=C\CCCCCCCC)c1 [Example 60] | 
5.82 |  | 0.076 |  | 81.79 | CCCCCCCCCCCCCC(=O)OCCCCOc1cc(CN(C)C)cc(OCCCCOC(=O)CCCCCCCCCCCCC)c1 [Example 61] | 
5.9 |  | 0.066 |  | 102.5 | CC/C=C\C/C=C\C/C=C\CCCCCCCC(=O)OCCCCOc1cc(CN(C)C)cc(OCCCCOC(=O)CCCCCCC/C=C\C/C=C\C/C=C\CC)c1 [Example 62] | 
6.11 |  | 0.071 |  |  | CCCCCCCC(=O)OCC(COC(=O)CCCCCCC)OC(=O)CCC(=O)OCc1cc(COC(=O)CCC(=O)OC(COC(=O)CCCCCCC)COC(=O)CCCCCCC)cc(CN(C)C)c1 [Example 107] | 
5.98 |  | 0.09 |  |  | CCCCC/C=C\C/C=C\CCCCCCCC(=O)OCCCCOc1cc(CN(C)C)cc(OCCCCOC(=O)CC(CCCCCCCC)CCCCCCCC)c1 [Example 109] | 
